Assay results from US20170315136A9, “BIOMARKER ASSAY OF NEUROLOGICAL CONDITION” (priority 2009, published 2017).

Assays:
[1] = system: Female Sprague-Dawley rats; conditions: for GFAP levels / SBDP150 levels / UCH-L1 levels: biofluid, 30, 60, 90, 120 minutes following dosing
Protocol: Acute oral In vivo drug candidate screening for neurotoxicity. […] A total of four to eight animals of are used for each dose level investigated.
At 30, 60, 90, and 120 minutes following dosing, the rats are sacrificed by decapitation and blood is obtained by cardiac puncture. The levels of biofluid UCH-L1 and SBDP 150 and GFAP are analyzed by sandwich ELISA or western blot by using UCH-L1 and SBDP 150 and GFAP specific antibodies.

[2] = system: Mouse, rat cortical or hippocampal primary neurons; assay: In vitro drug candidate screening for neurotoxicity (ELISA of cell lysates); assay type: cell-based; conditions: primary neurons 21 DIV; Glutamate 0.01 to 1000 μM for 30 minutes, H2O2 0.001 to 1000 μM for 24 hours; lysates by ELISA
Protocol: In vitro drug candidate screening for neurotoxicity. Mouse, rat cortical or hippocampal primary neurons are cultured for 21 DIV, and the dose dependent responses of drugs are investigated. Cultured cells are exposed to various concentrations of: Glutamate (0.01 to 1000 μM) in 10 μM glycine both in HBSS; B) 0.01 to 100 μM Kainate in culture media; C) H2O2 (0.001 to 1000 μM) in culture media; C) Zinc (0.01 to 1000 μM) in culture media; D) U0126 (0.001 to 100 μM) in culture media; and E) and equal volume of culture media as a control. Glutamate treatment is performed for 30 minutes after which the cells are washed and the HBSS is replaced with culture media and analyzed. The remaining candidates are treated for 24 hours and analyzed. The levels of intracellular UCH-L1 and SBDP 145 are analyzed following cell lysis and screening of the lysates by ELISA using anti-UCH-L1 and SBDP 145 specific antibodies. The levels of UCH-L1 are increased following exposure particularly to Glutamate and H2O2.

Row | Structure (SMILES) | GFAP levels [1] | SBDP150 levels [1] | UCH-L1 levels [1] | further results
1 | N.N.[Cl][Pt][Cl] [Cisplatin, cisplatin] | increase | increase | increase | –
2 | N[C@@H](CCC(=O)O)C(=O)O [Glutamate] | – | – | – | levels of intracellular UCH-L1 [2]: increased
3 | OO [H2O2] | – | – | – | levels of intracellular UCH-L1 [2]: increased
4 | CN1CC=C(c2ccccc2)CC1 [MPTP] | increase | increase | increase | –
5 | C[C@]12N[C@H](Cc3ccccc31)c1ccccc12 [dizocilpine] | increase | increase | increase | –
6 | C=C(C)[C@H]1CN[C@H](C(=O)O)[C@H]1CC(=O)O [kainic acid] | increase | increase | increase | –
7 | CN[C@@H](C)Cc1ccccc1 [methamphetamine] | – | – | – | CSF concentration of GFAP ([1]; rat, in vivo): increase; CSF concentration of SBDP 150 ([1]; rat, in vivo): increase; CSF concentration of UCH-L1 ([1]; rat, in vivo): increase
